Source: patent US20200079786A1, “ANALOGS OF […] AS SOLUBLE EPOXIDE HYDROLASE INHIBITORS” (UNIVERSITAT DE BARCELONA, priority 2015, published 2020)
In brackets after ≈: the same amount, converted by molar mass.

Legend:
[1] = Determination of water solubility (nephelometry); assay type: physicochemical; conditions: aqueous with cosolvent or surfactant or cyclodextrin, kinetic from dmso stock; 5% DMSO: 95% PBS buffer, 37° C., read after 2 and 4 h; read-out: S (solubility)
Huh-7 cells = test: Amelioration of palmitate-induced ER stress: ATF3, BiP and CHOP mRNA by real-time PCR; assay type: cell-based; conditions: palmitate 0.5 mM + inhibitor 1 μM, 48 h; for Level of CHOP mRNA: control (CT) = 100.0, PAL alone 224.5; for Level of BiP mRNA: control (CT) = 100.0, PAL alone 242.9; for Level of ATF3 mRNA: control (CT) = 100.0, PAL alone 585.5
Protocol: Huh-7 cells were maintained in a humid atmosphere of 5% CO2 at 37° C. in high glucose (25 mM) Dulbecco's modified Eagle's medium supplemented with 10% heat-inactivated fetal bovine serum, 1% of penicillin/streptomycin (10.000 units/mL of penicillin and 10.000 μg/mL of streptomycin) and 1% of amphotericin B (250 μg/mL).
Huh-7 cells were serum-starved overnight prior treatment. […] For RNA extraction, cells were pre-treated with the inhibitors (final concentration 1 μM) for 1 hour before treatment with palmitate (final concentration 0.5 mM) and inhibitors (final concentration 1 μM). For each condition, at least 3 replicates were performed. Following 48 hours of incubation, RNA were extracted as described below.
Total RNA in hepatocytes was harvested by TRIsure (Bioline) according to the manufacturer's instructions. The extracted RNA was dissolved in RNase-free water and concentrations of total RNA were quantified using a NanoDrop 2000c spectrophotometer (Thermo Scientific). First-stranded cDNA was synthesized from 0.5 μg total RNA (Life Technologies). […] The PCR reaction contained 10 ng of reverse-transcribed RNA, 2× IQ™ SYBRGreen Supermix (BioRad, Barcelona, Spain) and 900 nmol/L concentration of each primer. Optical primer amplification efficiency for each primer set was assessed and a dissociation protocol was carried out to assure a single PCR product. PCR assays were performed on a MiniOpticon™ Real-Time PCR system (BioRad). Thermal cycling conditions were as follows: activation of Taq DNA polymerase at 95° C. for 10 min, followed by 40 cycles of amplification at 95° C. for 15 sec and 60° C. for 1 min. The relative levels of specific mRNA were estimated from the value of the threshold cycle (Ct) of the real-time PCR adjusted by that of a housekeeping gene (GAPDH) through the formula […] (ΔCt=Gene of interest Ct-GAPDH Ct). Cf.

[2] = Determination of cytotoxicity in THLE-2 cells (ATP viability); assay type: cell-based; conditions: human; THLE-2 cells, 72 h exposure, 0-100 μM; read-out: LC50 (μM), cytotoxicity
Protocol: Cytotoxic effects of assayed compounds were tested using the immortalized human liver cell line THLE-2 (ATCC CRL-2706). Cells were cultured in BEGM medium (Clonetics # CC-4175) containing all the supplements kit except additional EGF and G418. Medium was completed by adding 0.7 μg/mL phosphoethanolamine, 0.5 ng/mL epidermal growth factor, antibiotics (penicillin and streptomycin) and 10% fetal bovine serum (FBS).
Cells were plated in 96-well black microplates at 10,000 cells/well density and were incubated at 37° C. (5% CO2, 95% humidity) for 24 h to allow the cells to adhere and form a monolayer. Test compounds were solubilized in 100% DMSO at a concentration curve way and then diluted with cell culture medium containing 10% DMSO. The final concentrations of the test compounds (1% DMSO) ranged from 0-100 μM in a final volume of 200 μL. Microplates were maintained at 37° C. (5% CO2, 95% humidity) during 3 days. Following this 72 h exposure to test compounds, cell viability in each well was determined by measuring the concentration of cellular adenosine triphosphate (ATP) using the ATP1Step Kit as described by the manufacturer (Perkin-Elmer). In a typical procedure, 50 μL of cell reagent is added to all wells of each test plate followed by incubation for 10 min at room temperature on an orbital shaker. ATP concentration was determined by reading chemical luminescence using the Envision plate reader (PerkinElmer). The percentage of viable cells relative to the non-drug treated controls was determined for each well and LC50 values were calculated as concentrations projected to kill 50% of the cells following a 72 h exposure, an average of minimum two independent replicates.

[3] = Parallel artificial membrane permeation assay for blood-brain barrier (PAMPA-BBB); assay type: in vitro ADME, porcine; conditions: PBS:EtOH (70:30)
Protocol: The in vitro permeability (Pe) of the test compounds through lipid extract of porcine brain membrane was determined. Assayed compounds were tested using a mixture of PBS:EtOH (70:30). […] From this equation and taking into account the limits established by Di et al. for BBB permeation, the ranges of permeability were established, as follows.

CYP1A2 = biological target: T1, CYP1A2 (Homo sapiens, UniProt P05177); test: Inhibition of human cytochrome P450 CYP1A2; assay type: in vitro ADME; conditions: human cytochrome P450 enzyme
T1 sequence (P05177 1-516): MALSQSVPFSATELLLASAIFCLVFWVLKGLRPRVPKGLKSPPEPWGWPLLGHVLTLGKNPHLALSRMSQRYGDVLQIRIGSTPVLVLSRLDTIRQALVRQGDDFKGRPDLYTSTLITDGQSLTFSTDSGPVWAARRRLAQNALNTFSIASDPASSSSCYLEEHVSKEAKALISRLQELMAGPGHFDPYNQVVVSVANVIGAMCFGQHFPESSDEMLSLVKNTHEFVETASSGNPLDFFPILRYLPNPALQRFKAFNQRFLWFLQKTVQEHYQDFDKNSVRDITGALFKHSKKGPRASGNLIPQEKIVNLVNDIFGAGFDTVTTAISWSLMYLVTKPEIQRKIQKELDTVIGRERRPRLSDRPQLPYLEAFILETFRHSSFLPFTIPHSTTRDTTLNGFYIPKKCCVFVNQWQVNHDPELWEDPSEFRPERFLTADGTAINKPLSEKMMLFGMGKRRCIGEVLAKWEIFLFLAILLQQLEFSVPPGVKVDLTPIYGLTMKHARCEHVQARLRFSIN
From the text: (§1) The epoxidation of arachidonic acid (AA) by selected cytochrome P450 epoxygenases generates epoxyeicosatrienoic acids (EETs). These EETs show anti-inflammatory, antihypertensive, analgesic, angiogenic, and antiatherosclerotic effects in rodents and humans. sEH converts EETs to their corresponding dihydroxyeicosatrienoic acids (DHETs), whereby the biological effects of EETs are diminished, eliminated, or altered. Among the P450 enzymes, it is known that CYP2C19 and CYP1A2 have the highest formation rate of EETs from AA (cf. A. A. El-Sherbeni et al. “Repurposing resveratrol and fluconazole to modulate human cytrochrome P450-mediated arachidonic acid metabolites”, Molecular Pharmaceutics 2016, vol. 13, pp. 1278-1288). For this reason, a highly desirable aspect of any new sEH inhibitor is selectivity in front of CYP2C19 and CYP1A2.

CYP2C19 = CYP2C19 (Homo sapiens, UniProt P33261); test: Inhibition of human cytochrome P450 CYP2C19; assay type: in vitro ADME; conditions: human cytochrome P450 enzyme
Chain of CYP2C19 (P33261 whole entry): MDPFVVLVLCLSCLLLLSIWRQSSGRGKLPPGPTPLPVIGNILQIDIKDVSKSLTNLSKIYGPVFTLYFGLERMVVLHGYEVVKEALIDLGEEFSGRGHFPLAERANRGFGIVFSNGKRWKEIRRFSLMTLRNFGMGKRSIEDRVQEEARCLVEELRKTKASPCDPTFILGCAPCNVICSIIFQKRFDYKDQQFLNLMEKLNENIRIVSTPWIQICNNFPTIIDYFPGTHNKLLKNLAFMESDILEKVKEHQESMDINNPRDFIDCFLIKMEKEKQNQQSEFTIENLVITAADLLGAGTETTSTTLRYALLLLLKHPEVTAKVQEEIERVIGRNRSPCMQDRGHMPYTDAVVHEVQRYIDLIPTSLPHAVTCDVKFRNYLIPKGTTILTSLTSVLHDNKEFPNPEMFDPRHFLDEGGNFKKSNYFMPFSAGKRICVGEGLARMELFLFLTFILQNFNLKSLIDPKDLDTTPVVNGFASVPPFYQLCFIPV
From the text: as §1

sEH in AR42j cells = biological target: T2, sEH in AR42j cells (Rattus norvegicus, UniProt P80299); test: In vitro determination of sEH inhibition activity in AR42j cells (cell-based fluorescent assay); conditions: AR-42J, read-out: % Inhn. ± SE (100 μM), sEH inhibition activity in cell culture
T2 sequence (P80299 1-554): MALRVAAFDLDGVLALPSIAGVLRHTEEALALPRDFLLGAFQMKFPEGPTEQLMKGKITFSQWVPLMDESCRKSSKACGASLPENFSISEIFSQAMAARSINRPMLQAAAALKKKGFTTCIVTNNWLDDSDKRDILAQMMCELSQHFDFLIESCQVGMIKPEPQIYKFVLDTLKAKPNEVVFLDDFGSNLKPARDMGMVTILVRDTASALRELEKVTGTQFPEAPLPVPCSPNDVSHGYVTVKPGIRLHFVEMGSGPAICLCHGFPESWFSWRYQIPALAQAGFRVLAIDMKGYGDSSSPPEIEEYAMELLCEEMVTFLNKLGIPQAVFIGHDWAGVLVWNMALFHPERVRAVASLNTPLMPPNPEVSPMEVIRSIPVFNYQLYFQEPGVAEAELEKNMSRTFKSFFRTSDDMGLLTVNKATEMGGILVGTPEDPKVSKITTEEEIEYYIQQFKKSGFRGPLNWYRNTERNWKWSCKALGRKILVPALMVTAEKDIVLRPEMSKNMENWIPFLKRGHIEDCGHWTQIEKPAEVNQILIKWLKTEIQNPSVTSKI
Protocol: Solutions Preparation: • Assay buffer 1×: add 10 mL of the CBA-Buffer (10×) to 90 mL of distilled water. • Lysis Buffer: add 50 μL of the CBA Digitonin Solution to 10 mL of Buffer Assay 1×. • Substrate Solution: dilute 10 μL of CBA sEH Substrate with 10 mL of Assay Buffer 1×. • Standards: preparation of 7 concentrations of CBA 6-methoxy-2-naphtalaldehyde from 0 until 2 M with Assay Buffer 1×. • sEH Positive Control: Prepare another stock A (1 μg/ml: 1 μL CBA sEH Positive Control+1 mL Assay Buffer 1×). From the already prepared stock A, prepare 250 μL of sEH (10 ng/mL): 2.5 μL sEH stock A+250 μL Assay Buffer 1×). • sEH Inhibitor AUDA: dilute 10 μL CBA sEH Inhibitor with 500 ml Assay Buffer 1×. • Inhibitors dissolved in DMSO at appropriated concentrations.
Seed cells in a 96-well plate at a density of (2×10^4)-(5×10^4) cells/well in 100 μL of culture medium with or without compounds to be tested. Incubation of the cells in a CO2 incubator at 37° C. for 48 hours. Aspirate the culture medium and add 200 μL of Assay Buffer 1× to each well. Centrifuge the plate at 800 rmp for 5 minutes. Aspirate the supernatant and add 100 μL of Lysis Buffer to each well. Incubate with gentle shaking on an orbital shaker for 30 minutes at room temperature. Centrifuge the plate at 3000 rpm for 20 minutes at 4° C. Transfer 90 μL of the supernatants to the 96-Well Solid Plate (black). Add 10 μL Assay Buffer 1× or 10 μL of the AUDA solution to appropriate wells. For positive control wells, add 100 μL of the 10 ng/mL sEH Positive Control to two wells. Add 200 μL of 6-methoxy-2-Naphthaldehyde Standards to corresponding wells of the black plate. Add 100 μL of the sEH Substrate Solution to each well, except the standards. Incubate the plate at 37° C. for 30 minutes. […] The intensity of fluorescence was used to analyze and calculate inhibition percentages, shown in the Table as average of minimum three independent replicates.

Row | Compound | solubility [1] | Level of CHOP mRNA (Huh-7 cells) | Level of BiP mRNA (Huh-7 cells) | Level of ATF3 mRNA (Huh-7 cells) | CC50 at 72 h [2] | CNS prediction [3] | inhibition at 1 µM (CYP1A2) | inhibition at 1 µM (CYP2C19) | inhibition at 100 µM (sEH in AR42j cells)
1 | O=C(Nc1ccc(F)c(F)c1F)NC12CC3CC(CC(C3)O1)C2 [Ia, 1-(2-oxaadamantan-1-yl)-3-(2,3,4-trifluorophenyl)urea] | 77 µM (≈ 25.1 µg/mL) | 129.9 ± 37.6^(###) | 129.0 ± 20.5^(###) | 191.4 ± 22.6^(###) | > 100 µM | CNS+ (Compounds of high BBB permeation (CNS+): Pe (10^6 cm s^−1)>5.181) | ≤ 6% | ≤ 6% | 35.8 ± 4.7%
2 | CC(C)S(=O)(=O)N1CCC(NC(=O)NC23CC4CC(CC(C4)O2)C3)CC1 [Io, 1-(2-oxaadamant-1-yl)-3-(1-(isopropylsulfonyl)piperidin-4-yl)urea] | > 100 µM | – | – | – | > 100 µM | CNS− (compounds of low BBB permeation (CNS−): Pe (10^6 cm s^−1)<2.107) | ≤ 6% | ≤ 6% | 40.9 ± 1.99%
3 | O=C(NC1CCN(C(=O)c2ccccc2F)CC1)NC12CC3CC(CC(C3)O1)C2 [Is, 1-(2-oxaadamant-1-yl)-3-(1-(2-fluorobenzoyl)piperidin-4-yl)urea] | > 100 µM | – | – | – | > 100 µM | CNS− (compounds of low BBB permeation (CNS−): Pe (10^6 cm s^−1)<2.107) | ≤ 6% | ≤ 6% | 45.3 ± 3.5%
4 | O=C(Nc1cc(Cl)cc(OC(F)(F)F)c1)NC12CC3CC(CC(C3)O1)C2 [Iu] | 45 µM (≈ 17.6 µg/mL) | – | – | – | – | – | ≤ 6% | ≤ 6% | –
5 | O=C(Nc1ccc(Cl)c(C(F)(F)F)c1)NC12CC3CC(CC(C3)O1)C2 [Iv, 1-(2-oxaadamantan-1-yl)-3-(4-chloro-3-(trifluoromethyl)phenyl)urea] | 60 µM (≈ 22.5 µg/mL) | – | – | – | 45.8 ± 3.8 µM | CNS+ (Compounds of high BBB permeation (CNS+): Pe (10^6 cm s^−1)>5.181) | ≤ 6% | ≤ 6% | 51.6 ± 6.6%
6 | O=C(Nc1cccc(S(F)(F)(F)(F)F)c1)NC12CC3CC(CC(C3)O1)C2 [Ix, 1-(2-oxaadamantan-1-yl)-3-(3-(pentafluoro-λ^6-sulfanyl)phenyl)urea] | > 100 µM | – | – | – | – | – | ≤ 6% | ≤ 6% | –
7 | O=C(Nc1ccc(F)c(F)c1F)NC12CC3CC(CC(C3)C1)C2 [Std 1, 1-(Adamantan-1-yl)-3-(2,3,4-trifluorophenyl)urea, reference compound] | 66 µM (≈ 21.4 µg/mL) | – | – | – | – | – | – | – | 56.6 ± 11%
8 | O=C(Nc1ccc(F)c(F)c1F)NC1C2CC3CC(C2)CC1C3 (centres unmarked) [Std 2, 1-(Adamantan-2-yl)-3-(2,3,4-trifluorophenyl)urea, reference compound] | – | 141.8 ± 23.7^(###) | 135.1 ± 16.2^(###) | 225.6 ± 21.2^(###) | – | – | – | – | –
